These results are taken from BindingDB's records for doi:10.1016/s0968-0896(99)00127-3 (Sankyo, 1999).

By IC50 is commonly meant the midpoint of a concentration-inhibition curve.

Molecules are shown by their SMILES.

This assay addresses T1, Dimer of Gag-Pol polyprotein [489-587] (Human immunodeficiency virus 1, UniProt P12497).
T1 construct: 489-587
The assay can be described thus: Protease Inhibition Assay. On the procedure: The inhibitory activities of the compounds toward HIV-1 PR were determined by sodium dodecyl sulfate-polyacrylamide gel electrophoresis (SDS-PAGE) assay. The IC50 values of active compounds were determined using the partially purified protease and the synthetic substrate Ac-Ser-Gln-AsnTyr-Pro-Ile-Val-NH2.

`Cc1cc(O)c(C)c(C(=O)N[C@@H](Cc2cc(F)cc(F)c2)[C@H](O)C(=O)N2C[C@@H](Cl)C[C@H]2C(=O)NC(C)(C)C)c1` [(3-Hydroxy-2,5-dimethylbenzoyl)-{2(S)-hydroxy-3(S)-amino-4-(3,5-difluoro)-phenylbutanoyl}-4(S)-Cl-Pro-NH-t-Bu] displayed an IC50 of 1.2 nM. This counts as single-digit nanomolar.

As to `Cc1cc(O)c(C)c(C(=O)N[C@@H](Cc2ccc(-c3ccccc3)cc2)[C@H](O)C(=O)N2C[C@@H](Cl)C[C@H]2C(=O)NC(C)(C)C)c1` [(3-Hydroxy-2,5-dimethylbenzoyl)-{2(S)-hydroxy-3(S)-amino-4-(4-phenyl)-phenylbutanoyl}-4(S)-Cl-Pro-NH-t-Bu], it took 1.3 nM to reach half-maximal inhibition (IC50).

Regarding `Cc1cccc(C[C@H](NC(=O)c2cccc(O)c2C)[C@H](O)C(=O)N2C[C@@H](Cl)C[C@H]2C(=O)NC(C)(C)C)c1` [(3-Hydroxy-2-methylbenzoyl)-(2(S)-hydroxy-3(S)-amino-4-m-tolylbutanoyl)-4(S)-Cl-Pro-NH-t-Bu], the IC50 is 0.6 nM.

The compound `Cc1ccc(C[C@H](NC(=O)c2cccc(O)c2C)[C@H](O)C(=O)N2C[C@@H](Cl)C[C@H]2C(=O)NC(C)(C)C)cc1` [(3-Hydroxy-2-methylbenzoyl)-(2(S)-hydroxy-3(S)-amino-4-p-tolylbutanoyl)-4(S)-Cl-Pro-NH-t-Bu] came in with a 50% inhibitory concentration (IC50) of 0.9 nM.

Take `Cc1c(O)cccc1C(=O)N[C@@H](CCc1ccccc1)[C@H](O)C(=O)N1C[C@@H](Cl)C[C@H]1C(=O)NC(C)(C)C` [(3-Hydroxy-2-methylbenzoyl)-(2(S)-hydroxy-3(S)-amino-5-phenylpentanoyl)-4(S)-Cl-Pro-NH-t-Bu]: it took 1.4 nM to reach half-maximal inhibition (IC50).

`Cc1c(O)cccc1C(=O)N[C@@H](Cc1ccccc1)[C@H](O)C(=O)N1C[C@@H](Cl)C[C@H]1C(=O)NC(C)(C)C` [(3-Hydroxy-2-methylbenzoyl)-(2(S)-hydroxy-3(S)-amino-phenylbutanoyl)-4(S)-Cl-Pro-NH-t-Bu]: the IC50 worked out at 0.9 nM.

`Cc1c(O)cccc1C(=O)N[C@@H](Cc1cc(F)cc(F)c1)[C@H](O)C(=O)N1C[C@@H](Cl)C[C@H]1C(=O)NC(C)(C)C` [(3-Hydroxy-2-methylbenzoyl)-{2(S)-hydroxy-3(S)-amino-4-(3,5-difluoro)-phenylbutanoyl}-4(S)-Cl-Pro-NH-t-Bu] had a half-inhibitory concentration (IC50) of 0.8 nM.

For `Cc1c(O)cccc1C(=O)N[C@@H](Cc1cccc(C(F)(F)F)c1)[C@H](O)C(=O)N1C[C@@H](Cl)C[C@H]1C(=O)NC(C)(C)C` [(3-Hydroxy-2-methylbenzoyl)-{2(S)-hydroxy-3(S)-amino-4-(3-trifluoromethyl)-phenylbutanoyl}-4(S)-Cl-Pro-NH-t-Bu], the IC50 was 0.5 nM.

As to `COc1ccc(C[C@H](NC(=O)c2cccc(O)c2C)[C@H](O)C(=O)N2C[C@@H](Cl)C[C@H]2C(=O)NC(C)(C)C)cc1` [(3-Hydroxy-2-methylbenzoyl)-{2(S)-hydroxy-3(S)-amino-4-(4-methoxy)-phenylbutanoyl}-4(S) -Cl-Pro-NH-t-Bu], half-maximal inhibition (IC50) required 0.9 nM.

In turn, `Cc1c(O)cccc1C(=O)N[C@@H](Cc1ccc(-c2ccccc2)cc1)[C@H](O)C(=O)N1C[C@@H](Cl)C[C@H]1C(=O)NC(C)(C)C` [(3-Hydroxy-2-methylbenzoyl)-{2(S)-hydroxy-3(S)-amino-4-(4-phenyl)-phenylbutanoyl}-4(S)-Cl-Pro-NH-t-Bu] yielded an IC50 of 0.9 nM. In other words, the sub-nanomolar range.

For the compound `Cc1c(O)cccc1C(=O)N[C@@H](Cc1cccc2ccccc12)[C@H](O)C(=O)N1C[C@@H](Cl)C[C@H]1C(=O)NC(C)(C)C` [(3-Hydroxy-2-methylbenzoyl)-{2(S)-hydroxy-3(S)-amino-4-(alpha-naphtyl)-butanoyl}-4(S)-Cl-Pro-NH-t-Bu], half-maximal inhibition (IC50) required 1.5 nM.

Compound `Cc1c(O)cccc1C(=O)N[C@@H](Cc1ccc2ccccc2c1)[C@H](O)C(=O)N1C[C@@H](Cl)C[C@H]1C(=O)NC(C)(C)C` [(3-Hydroxy-2-methylbenzoyl)-{2(S)-hydroxy-3(S)-amino-4-(beta-naphtyl)-butanoyl}-4(S)-Cl-Pro-NH-t-Bu] gave an IC50 of 1 nM.

The compound `Cc1c(O)cc(F)cc1C(=O)N[C@@H](Cc1cccc(C(F)(F)F)c1)[C@H](O)C(=O)N1C[C@@H](Cl)C[C@H]1C(=O)NC(C)(C)C` [(5-Fluoro-3-hydroxy-2-methylbenzoyl)-{2(S)-hydroxy-3(S)-amino-4-(3-trifluoromethyl)-phenylbutanoyl}-4(S)-Cl-Pro-NH-t-Bu] gave an IC50 of 2.1 nM.

As to `Cc1c(O)cc(F)cc1C(=O)N[C@@H](Cc1ccc2sccc2c1)[C@H](O)C(=O)N1C[C@@H](Cl)C[C@H]1C(=O)NC(C)(C)C` [(5-Fluoro-3-hydroxy-2-methylbenzoyl)-{2(S)-hydroxy-3(S)-amino-4-(benzo[b]thiophene-5-yl)-butanoyl}-4(S)-Cl-Pro-NH-t-Bu], the half-inhibitory concentration (IC50) is 1.9 nM.
